Assays:
P. aeruginosa = assay: Rescue concentration of substituted phenyl azaindole derivatives; type: cell-based; conditions: Imipenem fixed at 1 μg/mL
Protocol: (§1) The antibiotic adjuvant activity of the SPazaBIMs were evaluated in combination with representative antibiotics (representing 13 antibiotic classes) against the 19 pathogens strains listed in Table 3. To assess the adjuvant properties of the SP-azaBIM molecules, a modified checkerboard minimum inhibitory concentration assay was used. A fixed concentration of the respective antibiotic (susceptible breakpoint concentration) was mixed with a twofold dilution series of the test SP-azaBIM (FIG. 1). This was to determine the concentration of SP-azaBIM needed potentiate the antibiotic at a clinically susceptible breakpoint concentration. Antibiotic susceptible breakpoint concentrations for the respective bacteria were determined using Clinical Laboratory Standards Institute (CLSI) criteria M100 ED31.
(§2) In this study, only those antibiotics to which the bacterial was classed as resistant were included in the adjuvant assays. In this assay we recorded the rescue concentration of the SP-BIM for a respective antibiotic. The rescue concentration was defined as the concentration of the adjuvant that reduces the minimum inhibitory concentration (MIC) of an antibiotic to the susceptibility breakpoint.
(§3) Immediately prior to testing, the respective antibiotic and SP-azaBIM was dissolved in sterile deionised water at 20× the required test concentration. Each microtiter well was then inoculated with 180 μl of bacterial inoculum of 10^6 CFU/ml in ca-MHB, and 10 μl each if the antibiotic and SP-azaBIM was added to the plates. These plates were then incubated at 35° C. for 24 h under aerobic conditions. A similar method was followed for the fastidious pathogens except that they were cultured in ca-MHB with 5% sheep blood and 5% CO2.
Bacterial growth was visually inspected after the incubation period and the rescue concentration of the test SP-azaBIM was determined as the lowest concentration of the compound needed to reduce bacterial growth by 99.99% at the susceptible breakpoint concentration of the antibiotic. […] If the bacteria can tolerate this concentration in vitro, then the bacteria has an intermediate or absolute resistance toward that antibiotic. […]
(§4) Phenyl azaindole compounds are also tested for their adjuvant activities and the method is shown in Example 39.

[1] = system: Multidrug resistant Pseudomonas aeruginosa; assay: Broth microdilution minimum inhibitory concentration; type: cell-based; conditions: compound alone
Protocol: (§5) Antibacterial activity of the synthesized compounds was determined following guidelines established by the Clinical and Laboratory Standards Institute M07-A10 (CLSI 2015), following the broth microdilution method. Briefly, the test articles were dissolved in 100% DMSO, diluted by 2-fold serial titrations in the same vehicle (100% DMSO), for a total of 11 concentrations. A 4 μL aliquot of each dilution was then added to 196 μL of broth medium seeded with the bacterial suspension in wells of a 96 well plate (bacterial count: 2×10^5 to 8×10^5 colony forming units/mL final). The highest test substance concentration was 1028 μg/mL, and the final vehicle concentration was 2 percent. Following incubation, the test plate was visually examined, and each well was scored for growth or complete inhibition of growth. The minimum inhibitory concentration was determined as the lowest concentration were no growth of the bacterial was observed. Each test article was assayed in duplicate.

[2] = system: Vancomycin resistant Enterococcus faecalis; assay: as above; type: cell-based; conditions: compound alone
Protocol: as §5

[3] = system: Methicillin resistant Staphylococcus aureus; assay: as above; type: cell-based; conditions: compound alone
Protocol: as §5

[4] = system: Carbapenem resistant Klebsiella pneumoniae; assay: as above; type: cell-based; conditions: compound alone
Protocol: as §5

[5] = system: Carbapenem resistant Acinetobacter baumannii; assay: as above; type: cell-based; conditions: compound alone
Protocol: as §5

K. pneumoniae = assay: Rescue concentration of substituted phenyl azaindole derivatives; type: cell-based; conditions: for Rescue concentration, K. pneumoniae Ciprofloxacin (1 μg/mL): Ciprofloxacin fixed at 1 μg/mL; for Rescue concentration, K. pneumoniae Imipenem (1 μg/mL): Imipenem fixed at 1 μg/mL
Protocol: as §1, §2, §3
(§6) Bacterial growth was visually inspected after the incubation period and the rescue concentration of the test SP-azaBIM was determined as the lowest concentration of the compound needed to reduce bacterial growth by 99.99% at the susceptible breakpoint concentration of the antibiotic. For example, CLSI states that Pseudomonas aeruginosa is susceptible to the Imipenem if the MIC is ≤2 μg mL^−1. If the bacteria can tolerate this concentration in vitro, then the bacteria has an intermediate or absolute resistance toward that antibiotic. The goal was to determine the concentration of SP-azaBIM needed to cause P. aeruginosa death at 2 μg mL^−1 of Imipenem therefore restoring susceptibility of the bacteria to toward the antibiotic.
as §4

MRSA = assay: as above; type: cell-based, Staphylococcus aureus; conditions: Amoxicillin fixed at 2 μg/mL
Protocol: as §1, §2, §3, §6, §4

[6] = system: Klebsiella pneumoniae ATCC BAA-2814; assay: Gene expression analysis by quantitative reverse transcription PCR; type: cell-based; conditions: for ROB gene expression compared to untreated cells / soxS gene expression compared to untreated cells: Meropenem only 0.25 MIC (8 μg mL^−1)
Protocol: Cell treatment and RNA extraction: Overnight cultures of Klebsiella pneumoniae ATCC BAA-2814 grown on Brain Heart Infusion (BHI) agar was harvested and washed in phosphate buffer saline (pH=7.4) twice. Fresh Brain Heart infusion broth was inoculated with K. pneumoniae cells to a final concentration of 10^6 CFU mL^−1. Cells were subjected to the following treatments: T0—Vehicle only (ddH2O); T1—Meropenem only (0.25 MIC; 8 μg mL^−1); T2—Meropenem 0.25 MIC+SP-azaBIM 136 (2 ug mL^−1). Treated cells were incubated at 35° C. at 200 rpm and total RNA was extracted at 1 h and 6 h post exposure using TRIzol reagent (Life Technologies) following the manufacturer's protocol before eluting in DEPC treated water. Three biological replicates were included for each treatment.
Quantitative reverse transcription PCR analysis: Reverse transcription was done using the GoScript Reverse Transcriptase Kit (Promega, USA) employing a mixture (1:1) of random and oligo dT primers with 2 μg RNA as starting material in a 20-μL reaction following the manufacturers protocols. cDNA samples were then quantified by real-time PCR using specific primers in an Applied Biosystems 7500 Fast Real-Time PCR system (Life Technologies Corp., USA) and the data analysed using the 2^(−ΔΔct) method. Thermal cycling was performed using a two-step PCR amplification standard procedure at 95° C. for 30 s and 35 cycles of 95° C. for 5 s and 60° C. for 30 s. The expression levels of all the genes were normalized using the K. pneumoniae RNA polymerase sigma factor (rpoD) gene as an internal standard.
To examine this hypothesis, we investigated the expression of genes in K. pneumoniae ATCC […] that were affected by SP-azaBIM 136 treatment. Expression of key transcription factors and their associated downstream resistance and pathogenicity genes was examined in Klebsiella pneumoniae cells treated with meropenem and a combination of meropenem and SP-azaBIM 136. Cells in the exponential phase were either treated with 0.25 MIC (8 μg mL^−1) of Meropenem only or a combination of 0.25 MIC meropenem and 10 μg mL^−1 of SP-azaBIM 136. Untreated cells served as the control for baseline gene expression. Cells were exposed to each agent for 1 h and 6 h, after which the total RNA was extracted, and cDNA synthesis performed. […] The addition of SP-azaBIM 136 was theorized to revert the expression of the relevant genes closer to baseline expression levels.

[7] = system: clinical isolate CR-K. pneumoniae 7225; assay: Non-lethal mouse peritonitis infection model; type: in vivo, Swiss albino mice; conditions: monotherapy at 10 mg kg^−1; preliminary dosing experiments
Protocol: For both lethal and non-lethal infection models involving Carbapenem resistant Klebsiella pneumoniae suitable strains, number of mice per treatment and bacterial infection dose were predetermined in preliminary experiments.
Each mouse (n=6 per group) received an intraperitoneal (i.p.) injection of 200 μl of bacterial suspension (1×10^4 CFU ml^−1).
Mice were then treated once daily for two subsequent days (i.e. 24 h and 48 h). Twenty-four-hours after the last dose, the mice were euthanized via cervical dislocation and their spleen and liver excised, homogenized in PBS and plated onto Hichrome™ Klebsiella selective media (HiMedia Laboratories, PA, USA). The plates were incubated at 35° C. for 24 h and bacterial counts were determined (CFU g^−1 organ).
Based on the significance of the SP-azaBIMs to restore the in vitro efficacy of antibiotics against high priority pathogenic bacteria, we examined if these compounds could provide proof of concept that they could be used to treat in vivo infections. To test this, we performed both non-lethal and lethal intraperitoneal infection models in Swiss Albino mice.
There was a significant reduction in the K. pneumoniae load in both the liver (FIG. 2a) and spleen (FIG. 2b) for the combination therapies compared to the respective antibiotic monotherapies. […] Colistin (Col) (10 mg kg^−1) was used as the positive control in this case. K. pneumoniae load in the liver (FIG. 2a) and spleen (FIG. 2b) was determined by selective plating on Hichrome™ Klebsiella selective media. Data bars represent the average (n=6 mice per treatment group)±standard error.

| SMILES | Rescue concentration, P. aeruginosa Imipenem (1 μg/mL) (P. aeruginosa) | MIC [1] | MIC [2] | MIC [3] | MIC [4] | MIC [5] | Rescue concentration, K. pneumoniae Ciprofloxacin (1 μg/mL) (K. pneumoniae) | Rescue concentration, K. pneumoniae Imipenem (1 μg/mL) (K. pneumoniae) | Rescue concentration, MRSA Amoxicillin (2 μg/mL) (MRSA) | mexA efflux pump gene expression above untreated cells (peak) ([6]; Meropenem only) | norB efflux pump gene expression above untreated cells (peak) ([6]; Meropenem only) | ROB gene expression compared to untreated cells ([6]; 1 h) | ROB gene expression compared to untreated cells ([6]; 6 h) | soxS gene expression compared to untreated cells ([6]; 6 h) | soxS gene expression compared to untreated cells ([6]; initial (1 h)) | Efficacy of antibiotic monotherapy against K. pneumoniae 7225 [7] |
| --- | --- | --- | --- | --- | --- | --- | --- | --- | --- | --- | --- | --- | --- | --- | --- | --- |
| Nc1ccc(C(O)c2c[nH]c3cnccc23)cc1 (stereo not shown) [Compound 4NH2-6aza-OH, (4-aminophenyl)(1H-pyrrolo[2,3-c]pyridin-3-yl)methanol] | 128 µg/mL | < 1020 µg/mL | < 1020 µg/mL | < 1020 µg/mL | < 1020 µg/mL | < 1020 µg/mL | 64 µg/mL | 16 µg/mL | 8 µg/mL | – | – | – | – | – | – | – |
| O=[N+]([O-])c1ccc(C(O)c2c[nH]c3cnccc23)cc1 (stereo not shown) [Compound 4NO2-6aza-OH, (4-nitrophenyl)(1H-pyrrolo[2,3-c]pyridin-3-yl)methanol] | <256 µg/mL | < 1020 µg/mL | < 1020 µg/mL | < 1020 µg/mL | < 1020 µg/mL | < 1020 µg/mL | 128 µg/mL | 128 µg/mL | 128 µg/mL | – | – | – | – | – | – | – |
| O=[N+]([O-])c1ccc(C(O)c2c[nH]c3ncccc23)cc1 (stereo not shown) [Compound 4NO2-7aza-OH, (4-nitrophenyl)(1H-pyrrolo[2,3-b]pyridin-3-yl)methanol] | <256 µg/mL | < 1020 µg/mL | < 1020 µg/mL | < 1020 µg/mL | < 1020 µg/mL | < 1020 µg/mL | <256 µg/mL | <256 µg/mL | 32 µg/mL | – | – | – | – | – | – | – |
| Oc1ccc(C(O)c2c[nH]c3cnccc23)cc1 (stereo not shown) [Compound 4OH-6aza-OH, 4-(hydroxy(1H-pyrrolo[2,3-c]pyridin-3-yl)methyl)phenol] | 256 µg/mL | < 1020 µg/mL | < 1020 µg/mL | < 1020 µg/mL | < 1020 µg/mL | < 1020 µg/mL | <256 µg/mL | <256 µg/mL | 32 µg/mL | – | – | – | – | – | – | – |
| Oc1ccc(C(O)c2c[nH]c3ncccc23)cc1 (stereo not shown) [Compound 4OH-7aza-OH, 4-(hydroxy(1H-pyrrolo[2,3-b]pyridin-3-yl)methyl)phenol] | <256 µg/mL | < 1020 µg/mL | < 1020 µg/mL | < 1020 µg/mL | < 1020 µg/mL | < 1020 µg/mL | <256 µg/mL | <256 µg/mL | 128 µg/mL | – | – | – | – | – | – | – |
| O=Cc1cccc(C(O)c2c[nH]c3cnccc23)c1 (stereo not shown) [ISO-6aza-OH, 3-(hydroxy(1H-pyrrolo[2,3-c]pyridin-3-yl)methyl)benzaldehyde] | <256 µg/mL | < 1020 µg/mL | < 1020 µg/mL | < 1020 µg/mL | < 1020 µg/mL | < 1020 µg/mL | <256 µg/mL | <256 µg/mL | 64 µg/mL | – | – | – | – | – | – | – |
| C[C@@H](O)[C@H]1C(=O)N2C(C(=O)O)=C(S[C@@H]3CN[C@H](C(=O)N(C)C)C3)[C@H](C)[C@H]12 [Meropenem, reference compound] | – | – | – | – | – | – | – | – | – | 8.7 folds | 2.2 folds | approximately 3 folds | 12 folds | 18 folds | 3 folds | ineffective |
| O=Cc1cccc(C(O)c2c[nH]c3c(Cl)nccc23)c1 (stereo not shown) [iso-7Cl-6aza-OH, 3-((7-chloro-1H-pyrrolo[2,3-c]pyridin-3-yl)(hydroxy)methyl)benzaldehyde] | <256 µg/mL | < 1020 µg/mL | < 1020 µg/mL | < 1020 µg/mL | < 1020 µg/mL | < 1020 µg/mL | <256 µg/mL | <256 µg/mL | 32 µg/mL | – | – | – | – | – | – | – |

Source: patent US20230382926A1, “COMPOUNDS AND USES THEREOF” (The University of The West Indies, priority 2022, published 2023)
